Measured values taken from a melting point compilation (Tetko et al.; mined from patent text by program, amines drawn as free bases though some values may be those of a salt).

Compound | melting point [°C]
CN(C)c1ccc(C(C)(C(=O)O)c2ccc(N(C)C)cc2)cc1 | 152 to 154
O=C(CCCCCC1(C(=O)O)CCCC1)CCCCCC1(C(=O)O)CCCC1 | 78 to 85
CC(C)(S)CNC(=O)COCC(=O)O | 81 to 82
O=C(c1ccc(-c2ccsc2)cc1Cl)c1cccc2c1Nc1ncccc1CN2 | 125 to 130
CN(C)S(=O)(=O)N1CCN(S(=O)(=O)c2ccc(Oc3ccccc3)cc2)[C@@H](C(=O)NO)C1 | 153 to 155
Cc1sc(NC(=O)CCc2cnoc2-c2ccccc2)nc1-c1ccccc1 | 150 to 151
c1cc2cc(-c3cnc(O[C@H]4CCN5CCC[C@@H]4C5)nc3)ccc2[nH]1 | 195 to 199
Cc1cc(NC(=O)C2=C(O)c3ccc4ccccc4c3S(=O)(=O)N2C)sn1 | 268
CCOC(=O)COc1ccc2c(c1)C[C@H](NC(=O)OC(C)(C)C)CC2 | 113 to 115
CCOC(=O)CC(C#N)(CC(=O)OCC)c1ccc(Cl)c(Cl)c1 | 69 to 71
O=C(O)/C=C/c1ccc(OCCN2CCOCC2)cc1 | 228
CC(c1ccccc1)c1cccnn1 (stereo not drawn) | 43 to 48
Oc1cccc(C#CC=Cc2cccc(O)c2)c1 | 146 to 147
Cc1cc(C)c(S(=O)(=O)N2CCCC2c2ccc(F)cc2)c(C)c1 (racemic) | 111
Cn1cc(C2=C(c3cn(CCO)c4ccccc34)C(=O)NC2=O)c2ccccc21 | 250 to 252
CCCc1nc(C(O)C(C)C)c(C#N)n1Cc1ccc(-c2ccccc2-c2nnnn2C(c2ccccc2)(c2ccccc2)c2ccccc2)cc1 (stereo not drawn) | 154 to 155
CC(C)(C)C(O)(CCC1CCCCC1)Cn1cncn1 (stereo not drawn) | 63 to 67
C=CCn1nc(-c2sc(C(=O)NC(C)C)nc2-c2ccccc2)ccc1=O | 166 to 167
Cc1cc(=O)c2ccc(OCC(O)CNC(C)C)cc2o1 (stereo not drawn) | 80 to 82
CCOC(=O)Cc1c(-c2ccc(C)cc2)nn2cccnc12 | 69 to 71.5
CCOC(=O)C1=CC2(CCC1S(=O)(=O)Nc1ccc(F)cc1Cl)OCCCO2 (stereo not drawn) | 120 to 121
COC(=O)c1sc2c(c1N)c1ccccc1c(=O)n2-c1ccccc1Br | 214 to 216
CCOc1ccc(NC(=O)c2cnc3c(N)cccc3c2)cc1 | 187 to 189
CCc1ccc(S(=O)(=O)c2c(N)c3nncn3c3nc4ccccc4nc23)cc1 | > 300
CNC(=O)C1SCOC(=NO)S1 (stereo not drawn) | 99 to 102
CCCCc1nn(-c2ccccc2C(F)(F)F)c(=O)[nH]1 | 124 to 126

Compound | melting point [°C]
CC(=C1SC(=O)NC1=O)c1ccc(OCCOc2c(-c3ccc(F)cc3)n(C)c3ccccc3c2=O)c(F)c1 | 220 to 222
CCS(=O)c1nc(-c2ccc(OC)cc2)c(-c2ccc(OC)cc2)[nH]1 (stereo not drawn) | 161 to 162
Cc1ccc2cccc(OCc3cc(N(C)C(=O)CN)ccc3Cl)c2n1 | 82 to 87
CC(=O)N[C@H](Cc1ccc(C(=O)c2ccccc2)cc1)C(=O)O | 186 to 187
COCc1cnc2c(NC(=O)c3c(Cl)cccc3Cl)cccc2c1-n1ccnc1 | 145 to 150
CCCCCCCCCCc1nnnn1CC(=O)O | 104 to 106
COC1CSC2=C(SC1)C(OC(=O)N1CCN(C)CC1)N(c1ccc3ccc(Cl)cc3n1)C2=O (stereo not drawn) | 228
CN1CCC(=C2c3ccccc3C(CO)=C(CO)c3ccccc32)CC1 | 204 to 205
O=C(NCc1cccnc1)c1ccc2n1Cc1ccccc1N(C(=O)c1ccc(-c3ccccc3CN3CCCCC3)cc1)C2 | 199 to 202
COc1cc(OC)c2c(=O)[nH]c(-c3ccc(CN4CCOCC4)cc3)nc2c1 | 206 to 208
CCCC(O)(CC)C(C)=NO (stereo not drawn) | 59
COc1ccc2c(c1)CN(C(=O)CCCCCN1CCN(c3cccc(C(F)(F)F)c3)CC1)C2 | 92
O=C(OCc1cc(OCCCBr)cc(OCCCBr)c1)c1ccccc1 | 85 to 87.5
CC(C)Oc1cc(-n2nc(C(C)(C)C)oc2=O)ccc1F | 72.5 to 74
Cc1ccc(C2CC(=O)OC(=O)C2)cc1 | 160 to 162
O=[N+]([O-])c1cc(CCl)ccc1Oc1ccc(OCc2ccccc2)cc1 | 106 to 107
CS(=O)(=O)c1ccc(-c2sc(-c3ccccc3Cl)nc2-c2cccc(F)c2)cc1 | 134 to 135
Nc1cc2c(Nc3ccc(Cl)c(Cl)c3)ncnc2cn1 | 277 to 280
COc1ccc(C=Cc2oc3ccc(Br)cc3c2C(C)=O)cc1 | 163 to 165
O=c1c2c(Cc3ccccc3)n[nH]c2c2cccnc2n1-c1cccc(F)c1 | 298 to 299
CCCCc1nn(-c2cc(NC(=O)CC)ccc2Cl)c(=O)n1Cc1ccc(-c2ccccc2S(=O)(=O)NC(C)(C)C)cc1F | 103 to 105
CN(C)C(=O)C(C)(C)n1ccc(-c2cc(Cl)ccc2Cl)n1 | 94 to 96
C#CC(=NOC)C(=O)OC | 82 to 83
CCOC(=O)c1cc2c(Br)c(Br)oc2nc1C(=O)OCC | 96 to 98
CCOC(=O)c1nc(NCC(c2ccccc2)c2ccccc2)c2nc[nH]c2n1 | > 200
O=C1c2c(Cl)cccc2-n2cnc(-c3noc(CCl)n3)c2[C@@H]2CCN12 | 211 to 212

Compound | melting point [°C]
Cc1nn(CC(=O)O)cc1C(=O)Nc1ccc(OCC(C)(C)C)c(C#N)c1 | 234 to 245
COC1=CC(=O)C2CC=CCC2C1=O (stereo not drawn) | 120 to 122
COc1ccccc1C(Cl)=C(Cl)n1ccnc1 | 101
O=C1c2cc(C(=O)N3CCCCC3)ccc2-c2ccc(C(=O)N3CCCCC3)cc21 | 94.5 to 95.5
CC(C)Cn1c(CN)c(-c2ccccc2)c2cc(OCC(N)=O)ccc2c1=O | 161 to 163
O=C(O)c1nn(-c2ccc(Cl)cc2Cl)c(-c2ccc(Cl)cc2)c1COCCO | 182
CCOC(=O)c1cc(O)cc2nc(-c3ccc(O)cc3)oc12 | 305 to 307
COc1cc(C(=O)NS(=O)(=O)c2ccccc2Cl)ccc1Cc1cn(C)c2ccc(CC3CCN(C)C3=O)cc12 (stereo not drawn) | 128 to 135
Cc1c(C(=O)Nc2ccc(N3CCC(N4CCOCC4)CC3)c(C#N)c2)cnn1CCc1ccccc1 | 195
O=C1OC(CCI)C(O)=C1OCc1ccccc1 (stereo not drawn) | 101 to 104
O=C(Nc1nc(CN2CCC(c3c[nH]c4ccccc34)CC2)cs1)C1CC1 | 120 to 132
CS(=O)(=O)c1cc(CC(=O)O)cc2c1NC(C(F)(F)F)CC2 (stereo not drawn) | 124 to 125
CCCOc1ccc(F)cc1C(N)=O | 114 to 116
O=C(O)Cc1ccc(CN2CCN(c3ccccc3C(=O)O)CC2)cc1 | 179 to 181
CC(=O)Nc1c(C(=O)c2cc(Cl)ccn2)[nH]c2cc(Cl)ccc12 | 201 to 202
CCS(=O)(=O)C(NC(C)=O)C(=O)NCc1ccccc1 (stereo not drawn) | 161 to 163
Cc1ccccc1NC(=O)C1CCc2nc[nH]c2C1 (stereo not drawn) | 100 to 105
COC(=O)COc1cccc2c(CCN=[N+]=[N-])c(C)oc12 | 88 to 90
CCOCc1nc2c(N)nc3cc(Br)cnc3c2n1CC(C)C | 163 to 164
Clc1nc(NCCCCC=C(c2ccccc2)c2ccccc2)c2nc[nH]c2n1 | 206 to 207
CC(=O)OCC(=O)C1=CCC2C3CCC4=CC(=O)CCC4(C)C3CCC12C (stereo not drawn) | 146 to 148
CCc1nn(-c2ccccn2)c2nc3cc(F)c(F)cc3c(Cl)c12 | 160 to 161
Cn1cc(-c2ccc(Cl)cc2)c(=O)c(-c2cccc(Cl)c2)c1 | 170 to 172
O=c1[nH]c(=O)n(C2CC(Br)C(CBr)O2)cc1C=CBr (stereo not drawn) | 153
N#Cc1c(OCC(F)(F)F)nc(N)nc1N1CCc2ccccc2CC1 | 145 to 147
COC(=O)c1cc(=O)n2nc(COC(C)=O)nc2[nH]1 | 260

Compound | melting point [°C]
O=C1Nc2ccccc2C12CCCC2Br (stereo not drawn) | 238 to 240
CN(C(=O)CCCOc1ccc2c(c1)CN(CC(=O)O)C(N)=N2)C1CCCCC1 | 125 to 128
O=C(O)CCC(=O)OCCn1ccnc1 | 108 to 110
COc1ccc2nc(NN)nc(-c3ccccc3)c2c1 | 151 to 152
CCCN1CCCC2Cc3nc(NC(C)=O)sc3CC21 (stereo not drawn) | > 200
CCCCc1nc(CCNC(=O)OC(C)(C)C)c[nH]1 | 118 to 120
CC[C@H]1CNC[C@H]1NC(=O)OC(C)(C)C | 63.5 to 65.5
CC12CCC3c4ccc(O)cc4C(=O)C(Sc4ccc(Br)cc4)C3C1CCC2O (stereo not drawn) | 190 to 194
CCOC(=O)[C@@H](Cc1cccnc1)NC(C)=O | 80
Cc1cc(C#N)ccc1N1CCOCC1 | 85 to 86
COC(=O)c1cc(OC)c(-n2cccc2)c(OC)c1 | 145 to 146
CN(C)C(=O)CC(c1ccc(OC(F)F)c(OCC2CC2)c1)N1Cc2cccc(N)c2C1=O (stereo not drawn) | 70 to 72
COc1cc(C)c(C=O)cc1OCc1ccccc1 | 107 to 109
CCc1nccn1-c1nc(-c2ccc(Cl)cc2)c(CCC(=O)O)o1 | 197 to 199
CC(NC(=S)Nc1ccc(NCCN)nc1)C(C)(C)C (stereo not drawn) | 138 to 140
CC(=O)OCC(=O)C1(OC(C)=O)CCC2C3CC(C)C4=CC(=O)C=CC4(C)C3C(O)CC21C (stereo not drawn) | 216
Clc1cc(Nc2nccc(-c3ccc(N4CCNCC4)nc3)n2)cc(Cl)c1Cl | 208 to 211
Oc1ccccc1C=NNc1nc(C(Cl)(Cl)Cl)ns1 | 204 to 205
CC1(C)Oc2ccc(C#N)cc2C(c2cccn(Cc3ccccc3)c2=O)C1O (stereo not drawn) | 120 to 122
CC[C@@H](c1ccccc1)N(Cc1ccc(C(N)=O)cc1)S(=O)(=O)c1ccc(Cl)cc1 | 158 to 159
COc1ccc(N(C)c2nccc(-c3cccnc3)n2)cc1 | 88 to 90
Cc1c(C)c2c(c(Br)c1N)C(c1ccc(C(C)C)cc1)CO2 (stereo not drawn) | 191 to 193
CCNC(=O)c1ccc(N2CCN(Cc3cc4c(c(OC(F)F)c3)OC(C)C(=O)N4)CC2)c(Cl)c1 (stereo not drawn) | 102 to 104
O=P(O)(O)C(O)(CCC1CCCCN1)P(=O)(O)O (stereo not drawn) | 193 to 195
CCc1c(O)c(C(C)=O)c(C)c2c1OC(C)(C)CC2C (stereo not drawn) | 70 to 71
